Source: PubChem BioAssay (NCI)
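96-well plates; 48 h exposure; 5 concentrations. Endpoints by linear interpolation between flanking doses. Not reached: highest tested concentration assigned. Definition used: TGI = concentration required for complete inhibition of growth.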

Assays:
Test in all cases: DTP human tumour cell line panel, 48 h
786-0 renal = test system: 786-0 renal
A498 renal = test system: A498 renal
A549 NSCLC = test system: A549 NSCLC
ACHN renal = test system: ACHN renal
CAKI-1 renal = test system: CAKI-1 renal
CCRF-CEM leukemia = test system: CCRF-CEM leukemia
COLO 205 colon = test system: COLO 205 colon
DLD-1 colon = test system: DLD-1 colon
DMS 114 small cell lung = test system: DMS 114 small cell lung
DMS 273 small cell lung = test system: DMS 273 small cell lung
EKVX NSCLC = test system: EKVX NSCLC
HCC-2998 colon = test system: HCC-2998 colon
HCT-116 colon = test system: HCT-116 colon
HCT-15 colon = test system: HCT-15 colon
HL-60(TB) leukemia = test system: HL-60(TB) leukemia
HOP-62 NSCLC = test system: HOP-62 NSCLC
HT29 colon = test system: HT29 colon
IGROV1 ovarian = test system: IGROV1 ovarian
K-562 leukemia = test system: K-562 leukemia
KM12 colon = test system: KM12 colon
KM20L2 colon = test system: KM20L2 colon
LOX IMVI melanoma = test system: LOX IMVI melanoma
M14 melanoma = test system: M14 melanoma
M19-MEL melanoma = test system: M19-MEL melanoma
MALME-3M melanoma = test system: MALME-3M melanoma
MOLT-4 leukemia = test system: MOLT-4 leukemia
NCI-H226 lung = test system: NCI-H226 lung
NCI-H23 lung = test system: NCI-H23 lung
NCI-H460 lung = test system: NCI-H460 lung
NCI-H522 lung = test system: NCI-H522 lung
OVCAR-3 ovarian = test system: OVCAR-3 ovarian
OVCAR-4 ovarian = test system: OVCAR-4 ovarian
OVCAR-5 ovarian = test system: OVCAR-5 ovarian
OVCAR-8 ovarian = test system: OVCAR-8 ovarian
RXF 393 renal = test system: RXF 393 renal
SF-268 CNS = test system: SF-268 CNS
SF-295 CNS = test system: SF-295 CNS
SF-539 CNS = test system: SF-539 CNS
SK-MEL-2 melanoma = test system: SK-MEL-2 melanoma
SK-MEL-5 melanoma = test system: SK-MEL-5 melanoma
SK-OV-3 ovarian = test system: SK-OV-3 ovarian
SN12C renal = test system: SN12C renal
SNB-19 CNS = test system: SNB-19 CNS
SNB-75 CNS = test system: SNB-75 CNS
SNB-78 CNS = test system: SNB-78 CNS
SR leukemia = test system: SR leukemia
SW-620 colon = test system: SW-620 colon
TK-10 renal = test system: TK-10 renal
U251 CNS = test system: U251 CNS
UACC-257 melanoma = test system: UACC-257 melanoma
UACC-62 melanoma = test system: UACC-62 melanoma
UO-31 renal = test system: UO-31 renal
XF 498 CNS = test system: XF 498 CNS
HOP-18 NSCLC = test system: HOP-18 NSCLC
HOP-92 NSCLC = test system: HOP-92 NSCLC
LXFL 529 NSCLC = test system: LXFL 529 NSCLC
RPMI-8226 leukemia = test system: RPMI-8226 leukemia
SK-MEL-28 melanoma = test system: SK-MEL-28 melanoma

CN(C)c1ccccc1CC(c1c[nH]c2ccccc12)c1c[nH]c2ccccc12
TGI (786-0 renal): 25.4 µM
TGI (A498 renal): 31.1 µM
TGI (A549 NSCLC): 22.2 µM
TGI (ACHN renal): 20.6 µM
TGI (CAKI-1 renal): 16.3 µM
TGI (CCRF-CEM leukemia): 26.6 µM
TGI (COLO 205 colon): 11.3 µM
TGI (DLD-1 colon): 30.4 µM
TGI (DMS 114 small cell lung): 20.4 µM
TGI (DMS 273 small cell lung): 27.9 µM
TGI (EKVX NSCLC): 18.1 µM
TGI (HCC-2998 colon): 22.6 µM
TGI (HCT-116 colon): 23.3 µM
TGI (HCT-15 colon): 28.8 µM
TGI (HL-60(TB) leukemia): 25.3 µM
TGI (HOP-62 NSCLC): 23.3 µM
TGI (HT29 colon): 17.8 µM
TGI (IGROV1 ovarian): 30.9 µM
TGI (K-562 leukemia): 32.9 µM
TGI (KM12 colon): 14.5 µM
TGI (KM20L2 colon): 22.6 µM
TGI (LOX IMVI melanoma): 24.4 µM
TGI (M14 melanoma): 24 µM
TGI (M19-MEL melanoma): 29.1 µM
TGI (MALME-3M melanoma): 31.4 µM
TGI (MOLT-4 leukemia): 21.7 µM
TGI (NCI-H226 lung): 25.7 µM
TGI (NCI-H23 lung): 21.3 µM
TGI (NCI-H460 lung): 16 µM
TGI (NCI-H522 lung): 26.1 µM
TGI (OVCAR-3 ovarian): 25.6 µM
TGI (OVCAR-4 ovarian): 21.1 µM
TGI (OVCAR-5 ovarian): 30.5 µM
TGI (OVCAR-8 ovarian): 26.1 µM
TGI (RXF 393 renal): 20.2 µM
TGI (SF-268 CNS): 28.8 µM
TGI (SF-295 CNS): 24.4 µM
TGI (SF-539 CNS): 31 µM
TGI (SK-MEL-2 melanoma): 29.3 µM
TGI (SK-MEL-5 melanoma): 28.8 µM
TGI (SK-OV-3 ovarian): 33.7 µM
TGI (SN12C renal): 12.7 µM
TGI (SNB-19 CNS): 27.8 µM
TGI (SNB-75 CNS): 22 µM
TGI (SNB-78 CNS): 32.5 µM
TGI (SR leukemia): 21.6 µM
TGI (SW-620 colon): 19.2 µM
TGI (TK-10 renal): 29.9 µM
TGI (U251 CNS): 24.7 µM
TGI (UACC-257 melanoma): 31.8 µM
TGI (UACC-62 melanoma): 27.6 µM
TGI (UO-31 renal): 23.1 µM
TGI (XF 498 CNS): 31.5 µM

O=c1c2cc(Br)ccc2[nH]c(=S)n1-c1ccc(Br)cc1
TGI (786-0 renal): > 100 µM
TGI (A498 renal): > 100 µM
TGI (A549 NSCLC): > 100 µM
TGI (ACHN renal): > 100 µM
TGI (COLO 205 colon): > 100 µM
TGI (DLD-1 colon): > 100 µM
TGI (DMS 114 small cell lung): > 100 µM
TGI (EKVX NSCLC): > 100 µM
TGI (HCC-2998 colon): > 100 µM
TGI (HCT-116 colon): > 100 µM
TGI (HCT-15 colon): > 100 µM
TGI (HL-60(TB) leukemia): > 100 µM
TGI (HOP-18 NSCLC): > 100 µM
TGI (HOP-62 NSCLC): > 100 µM
TGI (HOP-92 NSCLC): 75.7 µM
TGI (HT29 colon): > 100 µM
TGI (IGROV1 ovarian): > 100 µM
TGI (K-562 leukemia): > 100 µM
TGI (KM12 colon): > 100 µM
TGI (KM20L2 colon): > 100 µM
TGI (LOX IMVI melanoma): > 100 µM
TGI (LXFL 529 NSCLC): > 100 µM
TGI (M19-MEL melanoma): > 100 µM
TGI (MALME-3M melanoma): > 100 µM
TGI (MOLT-4 leukemia): > 100 µM
TGI (NCI-H226 lung): > 100 µM
TGI (NCI-H23 lung): > 100 µM
TGI (NCI-H460 lung): > 100 µM
TGI (NCI-H522 lung): > 100 µM
TGI (OVCAR-3 ovarian): > 100 µM
TGI (OVCAR-4 ovarian): > 100 µM
TGI (OVCAR-8 ovarian): > 100 µM
TGI (RPMI-8226 leukemia): > 100 µM
TGI (RXF 393 renal): > 100 µM
TGI (SF-268 CNS): > 100 µM
TGI (SF-295 CNS): > 100 µM
TGI (SF-539 CNS): > 100 µM
TGI (SK-MEL-2 melanoma): > 100 µM
TGI (SK-MEL-28 melanoma): > 100 µM
TGI (SN12C renal): > 100 µM
TGI (SNB-19 CNS): > 100 µM
TGI (SNB-75 CNS): 41 µM
TGI (SNB-78 CNS): > 100 µM
TGI (SR leukemia): > 100 µM
TGI (SW-620 colon): > 100 µM
TGI (TK-10 renal): > 100 µM
TGI (U251 CNS): > 100 µM
TGI (UACC-257 melanoma): > 100 µM
TGI (UO-31 renal): > 100 µM
